Laboratory results from patent publication US4965377A, “Process of forming 2-(2-bromo-2-nitroethenyl)-furan” (Great Lakes Chemical Corporation, priority 1989, dated 1990).
Converted amounts (≈) assume the structure as drawn. Where two headings read alike, the source gives them in different places.

What was measured:
Pseudomonas aeruginosa [1] = assay: Minimum inhibitory concentration against Pseudomonas aeruginosa; format: cell-based
Procedure: (§1) All of the minimum inhibitory concentration determinations were made in a nutrient-rich growth medium in the following manner. Each organism was inoculated into a nutrient-rich medium that supported its growth. Various concentrations of a solution of the antimicrobial in THFA (90% THFA, 10% antimicrobial) were dosed into the inoculated growth medium; inoculated media were also dosed only with THFA (no antimicrobial)to serve as controls. Two concentrations of antimicrobial were recorded for each organism after growth in the controls was visible (the lowest concentration that prevented growth and the highest concentration that allowed growth); the MIC is reported as the range between these concentrations.

Baccilus megaterium = assay: Minimum inhibitory concentration against Bacillus megaterium; format: cell-based; settings: Priestia megaterium, read-out: Minimum Inhibitory Conc
Procedure: as §1

Chlorella pyrenoidosa = assay: Minimum inhibitory concentration against Chlorella pyrenoidosa; format: cell-based; settings: Auxenochlorella pyrenoidosa
Procedure: as §1

bacteria and algae = assay: Antimicrobial activity, general statement
Staphylococcus aureus = assay: Minimum inhibitory concentration against Staphylococcus aureus; format: cell-based; settings: Table 3, nutrient-rich growth medium, bacterium
Procedure: as §1

Xanthomonas prunii = assay: Minimum inhibitory concentration against Xanthomonas prunii; format: cell-based; settings: Table 3, nutrient-rich growth medium, bacterium
Procedure: as §1

Xanthomonas palargonii = assay: Minimum inhibitory concentration against Xanthomonas palargonii; format: cell-based; settings: Table 3, nutrient-rich growth medium, bacterium
Procedure: as §1

[2] = tested on: Xanthomonas poinsettiacola; assay: Minimum inhibitory concentration against Xanthomonas poinsettiacola; format: cell-based; settings: Table 3, nutrient-rich growth medium, bacterium
Procedure: as §1

Erwina chysanthemi = assay: Minimum inhibitory concentration against Erwina chysanthemi; format: cell-based; settings: Table 3; nutrient-rich growth medium; bacterium
Procedure: as §1

Erwina anylovora = assay: Minimum inhibitory concentration against Erwina anylovora; format: cell-based; settings: Table 3; nutrient-rich growth medium; bacterium
Procedure: as §1

Erwina caratovora = assay: Minimum inhibitory concentration against Erwina caratovora; format: cell-based; settings: Table 3; nutrient-rich growth medium; bacterium
Procedure: as §1

[3] = tested on: Agrobacterium tumefaciens; assay: Minimum inhibitory concentration against Agrobacterium tumefaciens; format: cell-based; settings: Table 3, nutrient-rich growth medium, bacterium
Procedure: as §1

[4] = tested on: Photobacterium phosphoreum; assay: Minimum inhibitory concentration against Photobacterium phosphoreum; format: cell-based; settings: Table 3, nutrient-rich growth medium, bacterium
Procedure: as §1

[5] = tested on: Desulfovibro desulfuricans; assay: Minimum inhibitory concentration against Desulfovibro desulfuricans; format: cell-based; settings: Table 3; nutrient-rich growth medium; bacterium
Procedure: as §1

Alternaria solani = assay: Minimum inhibitory concentration against Alternaria solani; format: cell-based; settings: Table 3, nutrient-rich growth medium, fungus
Procedure: as §1

Asperillus niger = assay: Minimum inhibitory concentration against Asperillus niger; format: cell-based; settings: Table 3; nutrient-rich growth medium; fungus
Procedure: as §1

Saccharomyces sp. = assay: Minimum inhibitory concentration against Saccharomyces sp.; format: cell-based; settings: Table 3; nutrient-rich growth medium; fungus (yeast)
Procedure: as §1

Trichoderma virde = assay: Minimum inhibitory concentration against Trichoderma virde; format: cell-based; settings: Table 3, nutrient-rich growth medium, fungus
Procedure: as §1

Rhizoctonia sp. = assay: Minimum inhibitory concentration against Rhizoctonia sp.; format: cell-based; settings: Table 3, nutrient-rich growth medium, fungus
Procedure: as §1

Pseudomonas aeruginosa [6] = assay: Viability of Pseudomonas aeruginosa in phosphate buffered water (FIG. 1); format: cell-based; settings: after 6 hours of contact, pH 7.2
Procedure: FIG. 1 illustrates a decrease in the viability of Pseudomonas aeruginosa, a common bacterial genus found in industrial cooling water upon contact with different concentrations of BNEF. The experiment was performed in phosphate buffered water at a pH of 7.2.

[7] = ASTM Pulp and Paper efficacy test (ASTM E600-85); format: cell-based; settings: compared with two commercially successful antimicrobials
Excerpt: BNEF can also be used as an antimicrobial in pulp and paper manufacturing applications.

bacteria = assay: Metal working fluid preservation test, bacteria (FIG. 3); format: cell-based, bacteria from spoiled metal working fluid; settings: soluble oil, semisynthetic, and synthetic fluids; 72 hours, room temperature
Procedure: (§2) In addition to pulp and paper manufacturing, BNEF can be used as a metal working fluid preservative. […] These tests were performed in the following manner. A typical soluble oil, semi-synthetic, and synthetic metalworking fluid were prepared with tap water at a ratio of 20:1. A field sample of "spoiled" fluid was mixed with a nutrient broth (50/50) and incubated for 24 hours to serve as the bacterial inoculum. Fungi isolated from metalworking fluids were grown on agar plates. The fungi were harvested into a suspension which then served as the fungal inoculum. At time zero, 50 ml aliquots of each fluid were prepared. The fluids were inoculated and dosed with the antimicrobial agent at different concentrations. Time zero bacterial and fungal counts were taken on each control fluid. The samples were then placed on a mechanical shaker (at room temperature) for 72 hours. Bacterial and fungal counts were then performed. The preferred level of BNEF in this application is in the range of 10 to 100 ppm.

fungi = assay: Metal working fluid preservation test, fungi; format: cell-based, fungi isolated from metalworking fluids; settings: soluble oil, semisynthetic, and synthetic fluids; 72 hours, room temperature
Procedure: as §2

[8] = tested on: naturally occurring microorganism in industrial cooling water; assay: Efficacy in industrial cooling water, ASTM E-645-85 method (FIG. 4); format: cell-based; settings: 5 ppm, 24 hours of contact
Excerpt: FIG. 4 is a graph showing the efficacy of 2-(2-bromo-2-nitroethenyl)-furan in industrial cooling water applications according to the ASTM E-645-85 method.
BNEF can also be used in water treatment such as for example treatment of industrial cooling water. […] Shorter contact times require a higher concentration of BNEF in the application. Preferably an antimicrobially effective amount of BNEF should be added to reduce the viability of microorganisms by at least 90 percent. It is especially preferred to employ about 1 ppm to about 5 ppm of BNEF.

[9] = Kinetics of disinfection in phosphate buffer (FIG. 5); format: cell-based; settings: 10 ppm (w/v); phosphate buffer pH 7.0
Excerpt: FIG. 5 is a graph showing the kinetics of disinfection of 2-(2-bromo-2-nitroethenyl)-furan in comparison to its styrene analogue.

Pseudomonas aeruginosa [10] = assay: Contact time required for 99.9% reduction in viability of Pseudomonas aeruginosa in water; format: cell-based
Procedure: Virtually all modern water treatment applications are alkaline. Even in an alkaline condition, BNEF is quite active. Data in Table 2 show the contact time of BNEF required for a 99.9% reduction in Viability of Pseudomonas aeruginosa in water. Several pure culture cell suspensions of Pseudomonas aeruginosa were prepared in phosphate-buffered water that had been adjusted to pH 7.0 or pH 8.1. The initial concentration of viable cells was determined by counting colony forming-units in the standard spread plate method. A tetrahydrofurfuryl alcohol (THFA) solution containing the antimicrobial (90% THFA, 10% antimicrobial) was added to cell suspensions at each pH such that 10 ppm of the antimicrobial was dosed. Similarly, THFA was added without antimicrobial to cell suspensions at each pH value to serve as no-treatment controls. The concentration of viable cells was then determined at regular time intervals for all of the cell suspensions until at least 99.9% reduction in viability (compared to the controls) was achieved by the antimicrobial treatment.

[11] = Table 4, analogues, read-out: MIC Against Pseudomonas aeruginosa
[12] = Table 1, read-out: Minimum Inhibitory Conc
[13] = Table 1, Chlorella pyrenoidosa, read-out: Minimum Inhibitory Conc
[14] = read-out: Minimum Inhibitory Conc

SMILES: O=[N+]([O-])C(Br)=Cc1cccs1 [2-(2-bromo-2-nitroethenyl)-thiophene]
- MIC (Pseudomonas aeruginosa [1]; [11]): 21 to 42 µg/mL (≈ 89.7 to 179 µM)

SMILES: O=[N+]([O-])C=Cc1ccco1 [2-nitro-1-(2-furyl)ethylene, reference compound]
- MIC (Pseudomonas aeruginosa [1]; [12]): 63 to 125 µg/mL (≈ 453 to 899 µM)
- MIC (Baccilus megaterium; Table 1, Baccilus megaterium): 63 to 125 µg/mL (≈ 453 to 899 µM)
- MIC (Chlorella pyrenoidosa; [13]): 16 to 63 µg/mL (≈ 115 to 453 µM)
- antimicrobial activity relative to BNEF (bacteria and algae; background statement): lower antimicrobial activity

SMILES: O=CC=Cc1ccco1 [3-(2-furyl)acrolein]
- MIC (Pseudomonas aeruginosa [1]; [14]): 250 to 500 µg/mL (≈ 2050 to 4090 µM)
- MIC (Baccilus megaterium): 250 to 500 µg/mL (≈ 2050 to 4090 µM)
- MIC (Chlorella pyrenoidosa; [14]): 16 to 63 µg/mL (≈ 131 to 516 µM)

SMILES: O=[N+]([O-])C(Br)=Cc1ccc(Br)o1 [5-bromo-2-(2-bromo-2-nitroethenyl)-furan]
- MIC (Pseudomonas aeruginosa [1]; [11]): 10 to 20 µg/mL (≈ 33.7 to 67.4 µM)

SMILES: Cc1ccc(C=C(Br)[N+](=O)[O-])o1 [5-methyl-2-(2-bromo-2-nitroethenyl)-furan]
- MIC (Pseudomonas aeruginosa [1]; [11]): 21 to 42 µg/mL (≈ 90.5 to 181 µM)

SMILES: O=[N+]([O-])C(Br)=Cc1ccc([N+](=O)[O-])o1 [5-nitro-2-(2-bromo-2-nitroethenyl)-furan]
- MIC (Pseudomonas aeruginosa [1]; read-out: MIC Against Pseudomonas aeruginosa): 8 to 16 µg/mL (≈ 30.4 to 60.8 µM)

SMILES: O=Cc1ccc([N+](=O)[O-])o1 [5-nitro-2-furaldehyde]
- MIC (Pseudomonas aeruginosa [1]; [12]): 6 to 12 µg/mL (≈ 42.5 to 85.1 µM)
- MIC (Baccilus megaterium; Table 1, Baccilus megaterium): 3 to 6 µg/mL (≈ 21.3 to 42.5 µM)
- MIC (Chlorella pyrenoidosa; [13]): 4 to 16 µg/mL (≈ 28.4 to 113 µM)

SMILES: O=[N+]([O-])C(Br)=Cc1ccco1 [BNEF, 2-(2-bromo-2-nitroethenyl)-furan]
- MIC (Pseudomonas aeruginosa [1]; [12]): 5 to 10 µg/mL (≈ 22.9 to 45.9 µM)
- MIC (Baccilus megaterium; Table 1, Baccilus megaterium): 5 to 10 µg/mL (≈ 22.9 to 45.9 µM)
- MIC (Chlorella pyrenoidosa; [13]): 4 to 16 µg/mL (≈ 18.3 to 73.4 µM)
- MIC (Chlorella pyrenoidosa; Table 3, nutrient-rich growth medium, algae, read-out: MIC): 4 to 16 µg/mL (≈ 18.3 to 73.4 µM)
- MIC (Staphylococcus aureus): 3 to 7.6 µg/mL (≈ 13.8 to 34.9 µM)
- MIC (Xanthomonas prunii): 2 to 5 µg/mL (≈ 9.17 to 22.9 µM)
- MIC (Xanthomonas palargonii): 1 to 2 µg/mL (≈ 4.59 to 9.17 µM)
- MIC [2]: 0.5 to 1 µg/mL (≈ 2.29 to 4.59 µM)
- MIC (Erwina chysanthemi): 0.5 to 1 µg/mL (≈ 2.29 to 4.59 µM)
- MIC (Erwina anylovora): < 0.5 µg/mL
- MIC (Erwina caratovora): 0.5 to 1 µg/mL (≈ 2.29 to 4.59 µM)
- MIC [3]: 0.5 to 1 µg/mL (≈ 2.29 to 4.59 µM)
- MIC [4]: 1 to 5 µg/mL (≈ 4.59 to 22.9 µM)
- MIC [5]: < 2 µg/mL
- MIC (Alternaria solani): < 1 µg/mL
- MIC (Asperillus niger): < 1 µg/mL
- MIC (Saccharomyces sp.): < 3 µg/mL
- MIC (Trichoderma virde): < 5 µg/mL
- MIC (Rhizoctonia sp.): < 1 µg/mL
- concentration required to eliminate 99.9% of the test inoculum (Pseudomonas aeruginosa [6]): about 10 ppm
- activity in Pulp and Paper efficacy test [7]: at least as active as two commercially successful antimicrobials
- effectiveness in metal working fluids against bacteria (bacteria): effective
- effectiveness in metal working fluids against fungi (fungi): effective
- reduction in viability [8]: ~99%
- effectiveness compared to β-bromo-β-nitrostyrene [9]: as effective as an antimicrobial in water treatment application as β-bromo-β-nitrostyrene
- Required Contact Time (99.9% reduction) (Pseudomonas aeruginosa [10]; 10 ppm, pH 7.0, Initial Cell Concentration 3.2 × 10^4): 5 h
- Required Contact Time (99.9% reduction) (Pseudomonas aeruginosa [10]; 10 ppm, pH 8.1, Initial Cell Concentration ~1.0 × 10^4): 1 h
- disinfection rate, effect of pH (Pseudomonas aeruginosa [10]; 10 ppm, pH level of 8 compared to pH level of 7): faster at a pH level of 8
- antimicrobial activity (bacteria and algae; summary of Table 1): active at very low concentrations

SMILES: C=Cc1ccco1 [furylethylene]
- MIC (Pseudomonas aeruginosa [1]; [12]): > 1000 µg/mL
- MIC (Baccilus megaterium; Table 1, Baccilus megaterium): > 1000 µg/mL
- MIC (Chlorella pyrenoidosa; [13]): 250 to 1000 µg/mL (≈ 2660 to 10600 µM)

SMILES: O=[N+]([O-])C(Br)=Cc1ccccc1 [β-bromo-β-nitrostyrene, reference compound]
- disinfection rate, effect of higher pH (Pseudomonas aeruginosa [10]; β-bromo-β-nitrostyrene, source of finding not stated): Increased disinfection rate with higher pH
